Laboratory results taken from patent US10150757B2, “Quinazolinone derivatives as PARP inhibitors” (Janssen Pharmaceutica NV, priority 2004, dated 2018).
Blank lines part the entries; values can stand above or below the molecule they belong to.

Assays:
TANK-2 enzyme = target: T1, TANK-2 enzyme (Homo sapiens, UniProt Q9H2K2); experiment: In vitro scintillation proximity assay (SPA) for TANK-2 inhibitory activity; format: biochemical; conditions: auto-poly(ADP-ribosyl)ation; 96-well plate results if available, otherwise 384-well; read-out: in vitro SPA assay TANK-2 pIC50 (converted)
T1 construct: made in house
T1 sequence (Q9H2K2 1-1166): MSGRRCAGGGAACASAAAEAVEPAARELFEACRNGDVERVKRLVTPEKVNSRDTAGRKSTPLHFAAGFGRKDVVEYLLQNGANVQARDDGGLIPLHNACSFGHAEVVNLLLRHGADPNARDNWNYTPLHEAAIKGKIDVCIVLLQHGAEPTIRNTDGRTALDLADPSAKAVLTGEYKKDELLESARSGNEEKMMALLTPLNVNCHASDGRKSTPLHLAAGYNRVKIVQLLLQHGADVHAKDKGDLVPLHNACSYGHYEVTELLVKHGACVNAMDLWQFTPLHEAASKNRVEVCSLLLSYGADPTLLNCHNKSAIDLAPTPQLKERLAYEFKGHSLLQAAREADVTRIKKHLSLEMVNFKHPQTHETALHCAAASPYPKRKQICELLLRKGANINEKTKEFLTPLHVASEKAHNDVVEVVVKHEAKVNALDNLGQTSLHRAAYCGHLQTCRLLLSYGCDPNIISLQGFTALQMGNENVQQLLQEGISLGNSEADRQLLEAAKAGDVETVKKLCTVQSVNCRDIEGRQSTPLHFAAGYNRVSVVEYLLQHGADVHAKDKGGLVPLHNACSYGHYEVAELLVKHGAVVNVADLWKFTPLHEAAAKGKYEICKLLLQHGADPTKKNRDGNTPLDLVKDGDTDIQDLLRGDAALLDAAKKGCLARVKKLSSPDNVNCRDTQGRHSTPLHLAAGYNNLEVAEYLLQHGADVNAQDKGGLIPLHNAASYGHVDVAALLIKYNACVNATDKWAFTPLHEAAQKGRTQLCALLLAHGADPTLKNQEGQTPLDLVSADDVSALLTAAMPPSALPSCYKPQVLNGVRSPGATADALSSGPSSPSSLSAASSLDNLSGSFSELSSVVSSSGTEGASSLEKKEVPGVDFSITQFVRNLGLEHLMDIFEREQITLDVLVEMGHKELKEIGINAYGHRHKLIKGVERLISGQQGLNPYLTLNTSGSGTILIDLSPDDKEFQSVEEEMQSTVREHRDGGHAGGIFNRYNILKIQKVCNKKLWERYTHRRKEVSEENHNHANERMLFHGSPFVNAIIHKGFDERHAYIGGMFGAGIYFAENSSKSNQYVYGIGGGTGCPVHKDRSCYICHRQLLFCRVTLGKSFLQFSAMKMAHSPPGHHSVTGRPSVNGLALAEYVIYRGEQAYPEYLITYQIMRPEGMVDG
Experimental: In Vitro Scintillation Proximity Assay (SPA) for TANK-2 Inhibitory Activity
Compounds of the present invention were tested in an in vitro assay based on SPA technology with Ni Flash plates (96 or 384 well).
In principle, the assay relies upon SPA technology for the detection of auto-poly(ADP-ribosyl)ation of TANK-2 protein using [^3H]-nicotinamide adenine dinucleotide ([^3H]-NAD^+) as ADP-ribosyl donor.
A stock solution of [^3H]-NAD^+/NAD was made by adding 64.6 μl of [^3H]-NAD^+ (0.1 mCi/ml, supplier: Perkin Elmer) and 46.7 μl NAD-stock (10.7 mM, stored at −20° C., supplier Roche) to 1888.7 μl assay buffer (60 mM Tris/HCl, pH 7.4; 0.9 mM DTT; 6 mM MgCl2). The TANK-2 enzyme was produced as described in EP1238063. 60 μl of assay buffer, together with 1 μl of compound in DMSO, 20 μl of [^3H]-NAD^+/NAD and 20 μl of TANK-2 enzyme (final concentration 6 μg/ml) was added per well into a 96-well Ni-coated flash plate (Perkin Elmer). After incubation of the mixture for 120 min. at room temperature, the reaction was terminated by adding 60 μl of stop solution (42.6 mg NAD in 6 ml H2O). The plates were covered with a plate sealer and placed in a TopCountNXT™ (Packard) for scintillation counting. Values were expressed as counts per minute (cpm). For each experiment, controls (containing TANK-2 enzyme and DMSO without compound), a blank incubation (containing DMSO but no TANK-2 enzyme or compound) and samples (containing TANK-2 enzyme and compound dissolved in DMSO) were run in parallel. All compounds tested were dissolved and eventually further diluted in DMSO. In first instance, compounds were tested at a concentration of 10^−5M. […] In each test, the blank value was subtracted from both the control and the sample values. The control sample represented maximal TANK-2 enzyme activity. For each sample, the amount of cpm was expressed as a percentage of the mean cpm value of the controls. When appropriate, IC50-values (concentration of the drug, needed to reduce the TANK-2 enzyme activity to 50% of the control) were computed using linear interpolation between the experimental points just above and below the 50% level. Herein the effects of test compounds are expressed as pIC50 (the negative log value of the IC50-value). As reference compounds, 3-aminobenzamide and 4-amino-1,8-naphthalimide were included to validate the SPA assay. Herein the assay was described using 96-well plates. In the assay using 384-well plates the same final concentrations were used and volumes were adapted.

[1] = system: ischemia and reperfusion of the heart; conditions: rabbits, cited from earlier work
colitis = conditions: rats, colitis by intraluminal trinitrobenzene sulfonic acid in 50% ethanol; cited from earlier work
PARP-1 enzyme = PARP-1 enzyme (Homo sapiens, UniProt P09874); experiment: In vitro scintillation proximity assay (SPA) for PARP-1 inhibitory activity; format: biochemical; conditions: [3H]-NAD+, biotinylated histones, nicked DNA; read-out: in vitro SPA assay PARP-1 pIC50 (converted)
Sequence of PARP-1 enzyme (P09874 whole entry): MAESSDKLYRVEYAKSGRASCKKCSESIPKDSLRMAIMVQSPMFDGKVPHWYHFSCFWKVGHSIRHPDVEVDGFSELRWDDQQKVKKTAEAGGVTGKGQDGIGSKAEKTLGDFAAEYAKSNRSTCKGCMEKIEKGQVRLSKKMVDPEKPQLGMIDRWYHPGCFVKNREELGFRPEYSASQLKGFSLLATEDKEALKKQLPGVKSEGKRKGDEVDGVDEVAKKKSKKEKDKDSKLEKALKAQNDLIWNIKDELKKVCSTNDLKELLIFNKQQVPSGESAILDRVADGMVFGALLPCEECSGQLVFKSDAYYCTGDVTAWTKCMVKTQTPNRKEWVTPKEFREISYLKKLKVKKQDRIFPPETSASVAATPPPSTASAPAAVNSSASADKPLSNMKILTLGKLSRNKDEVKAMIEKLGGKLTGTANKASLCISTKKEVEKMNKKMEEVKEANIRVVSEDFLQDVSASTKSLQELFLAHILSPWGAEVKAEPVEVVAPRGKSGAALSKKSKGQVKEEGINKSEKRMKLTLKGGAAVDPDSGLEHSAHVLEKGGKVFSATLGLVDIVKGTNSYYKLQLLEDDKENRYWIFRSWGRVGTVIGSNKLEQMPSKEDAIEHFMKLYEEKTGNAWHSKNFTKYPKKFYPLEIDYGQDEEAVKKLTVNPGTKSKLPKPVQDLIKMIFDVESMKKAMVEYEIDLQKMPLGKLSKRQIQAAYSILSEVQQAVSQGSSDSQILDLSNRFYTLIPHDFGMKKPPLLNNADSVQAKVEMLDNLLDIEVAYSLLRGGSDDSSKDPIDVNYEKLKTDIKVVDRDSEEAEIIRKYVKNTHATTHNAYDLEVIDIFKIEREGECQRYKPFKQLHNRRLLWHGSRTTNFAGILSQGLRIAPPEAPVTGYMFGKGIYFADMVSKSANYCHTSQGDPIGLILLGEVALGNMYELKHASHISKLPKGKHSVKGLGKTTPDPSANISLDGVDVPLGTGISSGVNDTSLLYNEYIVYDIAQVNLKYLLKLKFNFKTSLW
Experimental: In Vitro Scintillation Proximity Assay (SPA) for PARP-1 Inhibitory Activity
Compounds of the present invention were tested in an in vitro assay based on SPA technology (proprietary to Amersham Pharmacia Biotech).
In principle, the assay relies upon the well established SPA technology for the detection of poly(ADP-ribosyl)ation of biotinylated target proteins, i.e histones. This ribosylation is induced using nicked DNA activated PARP-1 enzyme and [^3H]-nicotinamide adenine dinucleotide ([^3H]-NAD^+) as ADP-ribosyl donor.
As inducer of PARP-1 enzyme activity, nicked DNA was prepared. For this, 25 mg of DNA (supplier: Sigma) was dissolved in 25 ml DNAse buffer (10 mM Tris-HCl, pH 7.4; 0.5 mg/ml Bovine Serum Albumine (BSA); 5 mM MgCl2.6H2O and 1 mM KCl) to which 50 μl DNAse solution (1 mg/ml in 0.15M NaCl) was added. After an incubation of 90 min. at 37° C., the reaction was terminated by adding 1.45 g NaCl, followed by a further incubation at 58° C. for 15 min. The reaction mixture was cooled on ice and dialysed at 4° C. for respectively 1.5 and 2 hours against 1.5 l of 0.2M KCl, and twice against 1.5 l of 0.01M KCl for 1.5 and 2 h respectively. The mixture was aliquoted and stored at −20° C. Histones (1 mg/ml, type II-A, supplier: Sigma) were biotinylated using the biotinylation kit of Amersham and stored aliquoted at −20° C. A stock solution of 100 mg/ml SPA poly(vinyl toluene) (PVT) beads (supplier: Amersham) was made in PBS. A stock solution of [^3H]-NAD^+ was made by adding 120 μl of [^3H]-NAD^+ (0.1 mCi/ml, supplier: NEN) to 6 ml incubation buffer (50 mM Tris/HCl, pH 8; 0.2 mM DTT; 4 mM MgCl2). A solution of 4 mM NAD^+ (supplier: Roche) was made in incubation buffer (from a 100 mM stock solution in water stored at −20° C.). The PARP-1 enzyme was produced using art known techniques, i.e. cloning and expression of the protein starting from human liver cDNA. Information concerning the used protein sequence of the PARP-1 enzyme including literature references can be found in the Swiss-Prot database under primary accession number P09874. Biotinylated histones and PVT-SPA beads were mixed and pre-incubated for 30 min. at room temperature. PARP-1 enzyme (concentration was lot dependent) was mixed with the nicked DNA and the mixture was pre-incubated for 30 min. at 4° C. Equal parts of this histones/PVT-SPA beads solution and PARP-1 enzyme/DNA solution were mixed and 75 μl of this mixture together with 1 μl of compound in DMSO and 25 μl of [^3H]-NAD^+ was added per well into a 96-well microtiterplate. The final concentrations in the incubation mixture were 2 μg/ml for the biotinylated histones, 2 mg/ml for the PVT-SPA beads, 2 μg/ml for the nicked DNA and between 5-10 μg/ml for the PARP-1 enzyme. After incubation of the mixture for 15 min. at room temperature, the reaction was terminated by adding 100 μl of 4 mM NAD^+ in incubation buffer (final concentration 2 mM) and plates were mixed.
The beads were allowed to sediment for at least 15 min. and plates transferred to a TopCountNXT™ (Packard) for scintillation counting, values were expressed as counts per minute (cpm). For each experiment, controls (containing PARP-1 enzyme and DMSO without compound), a blank incubation (containing DMSO but no PARP-1 enzyme or compound) and samples (containing PARP-1 enzyme and compound dissolved in DMSO) were run in parallel. All compounds tested were dissolved and eventually further diluted in DMSO. In first instance, compounds were tested at a concentration of 10^−5M. […] In each test, the blank value was subtracted from both the control and the sample values. The control sample represented maximal PARP-1 enzyme activity. For each sample, the amount of cpm was expressed as a percentage of the mean cpm value of the controls. […] Herein the effects of test compounds are expressed as pIC50 (the negative log value of the IC50-value).

Compound: NC(=O)c1cccc(N)c1 [3-amino-benzamide]
reductions in infarct size in the heart ([1]; single injection 10 mg/kg, one minute before occlusion or one minute before reperfusion): 32-42% | inflammatory response, morphology and energetic status of the distal colon (colitis): reduced the inflammatory response and restored the morphology and the energetic status of the distal colon

Compound: Oc1cccc2c(O)nccc12 [1,5-dihydroxyisoquinoline]
reduced infarct size ([1]; single injection 1 mg/kg): 38-48%

Compound: O=c1[nH]c(NCCN2CCN(c3n[nH]c(=O)c4ccccc34)CC2)nc2ccccc12 [Compound 35]
IC50 (PARP-1 enzyme): 0.0107 µM

Compound: O=c1[nH]c(NCCN2CCN(c3n[nH]c4ccccc34)CC2)nc2ccccc12 [Compound 19]
IC50 (TANK-2 enzyme): > 10 µM

Compound: COc1cc2nc(NCCN3CCN(c4n[nH]c5ccccc45)CC3)[nH]c(=O)c2cc1OC [Compound 32]
IC50 (PARP-1 enzyme): 0.0452 µM

The remaining lines, values ahead:

IC50 (TANK-2 enzyme): > 10 µM
Compound: CC1(C)Cc2cc(Cl)cc(C(=O)NC3CCN(CCNc4nc(O)c5ccccc5n4)CC3)c2O1 [Compound 12]

IC50 (TANK-2 enzyme): > 10 µM
Compound: CO[C@@H]1CN(CCCNc2nc(O)c3cc(Cl)ccc3n2)CC[C@@H]1NC(=O)c1cc(Cl)c(N)c2c1OC(C)(C)C2 [Compound 16]

IC50 (TANK-2 enzyme): > 10 µM
Compound: CO[C@H]1CN(CCNc2nc(O)c3ccccc3n2)CC[C@H]1NC(=O)c1cc(Cl)cc2c1OC(C)(C)C2 [Compound 13]

IC50 (PARP-1 enzyme): 0.0217 µM
Compound: Cc1cccc2nc(NCCN3CCC(c4n[nH]c5cc(F)ccc45)CC3)[nH]c(=O)c12 [Compound 34]

IC50 (TANK-2 enzyme): > 10 µM
Compound: CO[C@@H]1CN(CCCNc2nc(O)c3ccc(Cl)cc3n2)CC[C@@H]1NC(=O)c1cc(Cl)c(N)c2c1OC(C)(C)C2 [Compound 17]

melting point: 118 °C
Compound: CCc1cc2cc(CN3CCN(CCNc4nc5ccccc5c(=O)[nH]4)CC3)ccc2nc1OC (hydrate or solvate) [Compound 3]

IC50 (TANK-2 enzyme): > 10 µM
Compound: CC1(C)Cc2cc(Cl)cc(C(=O)NC3CCN(CCCNc4nc(O)c5ccccc5n4)CC3)c2O1 [Compound 11]
